PMC11254172 (International Journal for Parasitology: Drugs and Drug …, 2024)
Read-outs that look alike come from different tables or passages of the source.

How the values were obtained:
[1] = test system: T. gondii; conditions: cited from earlier work
[2] = test system: T. gondii oocysts; design: method as in Müller et al., 2017b; conditions: 50 mg/kg/day for 5 days; ref Müller et al., 2017b; cited from earlier work
[3] = test system: N. caninum; conditions: 50 mg/kg/day for 6 days; ref Winzer et al., 2015; cited from earlier work
[4] = test system: Tg-β-gal tachyzoites; experiment: In vitro proliferation assay with T. gondii β-gal tachyzoites in HFF monolayers; type: cell-based, Toxoplasma gondii; conditions: read at 72 h post-infection
Experimental: (§1) N. caninum strain NcSpain-7 and the transgenic strain N. caninum Nc1 expressing β-galactosidase (Nc-β-gal) were grown and maintained in HFF ([Aguado-Martínez et al., 2016]). T. gondii ME49 and T. gondii β-gal tachyzoites (RH background, Tg-β-gal) were cultured as previously described ([Winzer et al., 2015]). T. gondii oocysts of the type II isolate T. gondii sheep Spain 1 (TgShSp1) were generated at the Complutense University of Madrid, Spain, and were stored at 4 °C ([Sánchez-Sánchez et al., 2019]).
(§2) The effects of the compound on HFF viability were assessed by resazurin reduction assay, following the protocols of previous studies ([Anghel et al., 2020]).

[5] = test system: Nc-β-gal tachyzoites; experiment: In vitro proliferation assay with N. caninum β-gal tachyzoites in HFF monolayers; type: cell-based, Neospora caninum; conditions: read at 72 h post-infection
Experimental: as §1, §2

[6] = test system: N. caninum NcSpain-7 tachyzoites; conditions: in vivo
Experimental: A total of 57 BALB/c mice were used: 38 females and 19 males, all 8 weeks old. […] For the infection, NcSpain-7 tachyzoites were cultured in HFF at 37 °C/5% CO₂ and transferred to BALB/c fibroblasts to be grown under the same conditions for three days prior to infection. Parasites were then collected and counted, and each mouse was infected by subcutaneous injection with 10⁵ NcSpain-7 tachyzoites suspended in 100 μL PBS ([Arranz-Solís et al., 2015]). Infection took place on day 7 post-mating. Pregnant and non-pregnant mice were separated as described for the toxoplasmosis model and evaluated for clinical signs and mortality rates. Pregnant mice gave birth on days 20–23 post-mating. […]
Brains of adult mice and surviving pups were collected directly after sacrifice and parasitic load was quantified by real-time PCR specific for T. gondii ([Costa et al., 2000]) and N. caninum ([Müller et al., 2002]). […] DNA was extracted from all samples using the Nucleospin Kit (Macherey-Nagel, Oensingen, Switzerland) and QuantiFluor dsDNA System (Promega, Madison, Wi, USA) was used to determine the DNA concentration. […] Quantitative real-time PCR was performed using the Light Cycler® System (Roche, Basel, Switzerland). Parasite load was calculated by interpolation from a standard curve of DNA samples from 1000, 100 and 10 T. gondii or N. caninum tachyzoites included in each run. […]

CC(C)(C)n1nc(Cc2cccc3ccccc23)c2c(N)ncnc21 [1NM-PP1]
Morphological effect on T. gondii ([1]; ref Sugi et al., 2016): Multinucleated forms

CCOc1ccc2cc(-c3nn(CC4CCN(C)CC4)c4ncnc(N)c34)ccc2c1 [BKI-1294]
Pups with detectable T. gondii DNA in their brain (%) [2]: 7%
Pups with detectable T. gondii DNA in their brain (number) [2]: 4 out of 55
Pup survival rate [3]: 80%

CC(C)(CO)Cn1nc(-c2ccc3cc(OC4CC4)ccc3c2)c(C(N)=O)c1N [BKI-1708]
IC50 ([4]; Toxoplasma gondii, 72 h, read-out: IC50 Tg-β-gal Pre-infection, compound added concomitantly to infection of HFF): 0.12 µM
IC50 ([4]; Toxoplasma gondii, read-out: IC50 Tg-β-gal Post-infection, compound added 3 h after infection of HFF): 0.327 µM
IC50 ([4]; read-out: IC50 Tg-β-gal Pre-infection, compound added concomitantly to infection of HFF): 0.122 µM
IC50 ([5]; Neospora caninum, 72 h, read-out: IC50 Nc-β-gal Pre-infection, compound added concomitantly to infection of HFF): 0.48 µM
IC50 ([5]; Neospora caninum, read-out: IC50 Nc-β-gal Post-infection, compound added 3 h after infection of HFF): 0.964 µM
IC50 ([5]; read-out: IC50 Nc-β-gal Pre-infection, compound added concomitantly to infection of HFF): 0.481 µM
Vertical transmission rate (%) [6]: 38%

N#CC(c1ccc(Cl)cc1)c1c(Cl)cc(-n2ncc(=O)[nH]c2=O)cc1Cl (stereo not drawn) [diclazuril]
Morphological effect on T. gondii ([1]; ref Lindsay et al., 1995): formation of multinucleated forms
